Measurements reported in US5494907A, “11-β substituted-19-nor steroids” (Roussel UCLAF, priority 1993, dated 1996).

What was measured:
[1] = molecular target: T1, hER (recombinant human estrogen receptor) (Homo sapiens, UniProt P03372); assay: Relative bond affinity (RBA) on recombinant human estrogen receptor, displacement of tritiated estradiol; format: binding; conditions: for RBA hER: Estradiol = 100, 0° C., 24 hours; for affinity for the estrogen receptor (in words): conclusion in words
T1 construct: made in house; host or cells: SF9 insect cells, recombinant baculovirus
T1 sequence (P03372 1-595): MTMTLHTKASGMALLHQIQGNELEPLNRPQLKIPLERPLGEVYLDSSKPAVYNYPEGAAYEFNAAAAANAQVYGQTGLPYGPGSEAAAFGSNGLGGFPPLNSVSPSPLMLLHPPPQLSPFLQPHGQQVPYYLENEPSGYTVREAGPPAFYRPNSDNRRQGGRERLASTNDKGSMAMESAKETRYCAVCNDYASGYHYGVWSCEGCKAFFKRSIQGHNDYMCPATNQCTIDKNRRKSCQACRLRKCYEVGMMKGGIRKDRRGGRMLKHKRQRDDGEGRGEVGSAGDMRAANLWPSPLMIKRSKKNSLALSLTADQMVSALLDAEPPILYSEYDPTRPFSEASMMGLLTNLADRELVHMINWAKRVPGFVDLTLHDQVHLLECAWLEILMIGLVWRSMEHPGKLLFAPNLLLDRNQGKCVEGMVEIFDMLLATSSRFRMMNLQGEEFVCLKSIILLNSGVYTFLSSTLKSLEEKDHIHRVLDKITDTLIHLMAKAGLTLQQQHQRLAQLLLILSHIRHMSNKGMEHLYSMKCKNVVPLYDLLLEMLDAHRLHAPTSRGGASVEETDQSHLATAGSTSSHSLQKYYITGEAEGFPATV
Source text: 1--Activity on the hormonal receptors using either the natural hormonal receptor of a rat (AR), or the recombinant human receptor (PR, GR and ER).
A supernatant of SF9 cells containing the recombinant human estrogen receptor was obtained by the process described above for the progesterone receptor using the cDNA fragment described in the HEGO expression vector by TORA et al. (EMBO Journal (1989), Vol. 8 N° 7, pp. 1981-1986), containing the region coding for the human estrogen receptor of "wild type" with a glycine in position 400. The cells were lysed in the lysis buffer (1). The supernatant was incubated at 0° C. for 24 hours with a constant concentration (T) of tritiated estradiol in the presence of increasing concentrations either of unlabelled estradiol (0-1000×10^-9 M), or of the unlabelled product under test (1 to 25000×10^-9 M). The concentration of bound tritiated estradiol (B) was then measured in each incubate by the technique of adsorption with carbon dextran.
Calculation of the relative bond affinity (RBA).
The following 2 curves were traced: percentage of bound tritiated hormone B/BO as a function of the logarithm of the concentration of unlabelled reference hormone or as a function of the logarithm of the concentration of the unlabelled product under test.
The straight line of the following equation was determined:
BO=Concentration of bound tritiated hormone in the absence of any unlabelled product,
B=Concentration of bound tritiated hormone in the presence of a concentration X of unlabelled product,
B min=Concentration of bound tritiated hormone in the presence of a large excess of cold reference hormone (500 nM). The intersections of the straight line I50 and the curves allowed the evaluation of the concentrations of unlabelled reference hormone (CH) and of the unlabelled product under test (CX) which inhibited by 50% the specific binding of the tritiated hormone on the receptor.
The relative bond affinity (RBA) of the product under test was determined by the equation:
The RBA's of the reference products estradiol, progesterone, dexamethasone and testosterone were arbitrarily taken to be equal to 100.

[2] = system: MCF-7 human breast tumour cells; assay: Anti-proliferative activity on the growth of MCF-7 human breast tumour cells (DNA dosage); format: cell-based; conditions: MCF7, stimulated by EGF + PDGF, D7 to D9, read-out: IC50, concentration which inhibited by 50% the growth of the MCF-7 cells
Experimental: 2--Anti-proliferative activity on the growth of MCF-7 human breast tumour cells
The MCF-7 lines were maintained in culture in a base medium (according to 1) containing 5% of foetal calf serum at 37° C. under a humid atmosphere containing 5% CO2. The subconfluent cells were collected by trypsination (0.1% trypsin, 0.02% EDTA) and then rinsed by gentle centrifuging. A sample of the cells in suspension was counted with a Malassez cell.
The cells were resuspended in a base medium without phenol red in the presence of 5% of steroid-free FCS, and stimulated either by 0.1 nM of estradiol, or by 10 ng/ml of EGF+1 ng/ml of PDGF. The cells were seeded at a rate of 50,000 cells per well in multi-well plates (24 wells of 2.5 cm^2). Twenty-four hours after the seeding (DO), the product to be tested was added to the mixture in ethanolic solution (final concentration of ethanol: 0.1%), at a concentration of 10^-11 to 10^-6 M, the control wells receiving the same concentration of ethanol. The media containing the products were renewed every 48 hours. At the end of the experiment (D7 to D9), the mixture was extracted and the cells were immediately fixed with 250 microliters of methanol to dose the DNA. The anti-proliferative activity of the products was evaluated by their capacity to inhibit the increase of DNA relative to the control.
The DNA was dosed by a fluorimetric method using DABA (3,5diaminobenzoic acid) (according to 2): 200 microliters of DABA were added to each well and the plates were incubated for 45 minutes at 56° C. Then, 2 ml of 1N HCl were added and the fluorescence was measured using a fluorimeter (excitation wavelength: 408 nm, emission wavelength: 510 nm). The quantity of DNA per well was evaluated relative to a reference scale obtained by treating a calf thymus DNA standard under the same conditions.
The concentration in nM which inhibited by 50% the growth of the MCF-7 cells stimulated by EGF +PDGF (IC50) was determined in the manner indicated above.

Compound | RBA hER [1] | IC50 [2] [nM] | affinity for the estrogen receptor (in words) [1]
CCCCN(C)S(=O)(=O)CCCCCOc1ccc([C@H]2C[C@]3(C)[C@@H](O)CC[C@H]3[C@@H]3CCc4cc(O)ccc4[C@H]32)cc1 [Example 7, N-butyl-5-[4-(Δ1,3,5(10)-estratrien-3,17β-diol-11β-yl)phenoxy]-N-methyl-pentanesulfonamide] | 4 | 0.015 | –
CN(CC(F)(F)C(F)(F)C(F)(F)F)S(=O)(=O)CCCCCOc1ccc([C@H]2C[C@]3(C)[C@@H](O)CC[C@H]3[C@@H]3CCc4cc(O)ccc4[C@H]32)cc1 [Example 8, 5-[4-(Δ1,3,5(10)-estratrien-3,17β-diol-11βyl)-Phenoxy]-N-(2,2,3,3,4,4,4-heptafluorobutyl)-N-methyl-pentanesulfonamide] | 19 | 0.026 | marked affinity
CCCCNS(=O)(=O)CCCCCOc1ccc([C@H]2C[C@]3(C)[C@@H](O)CC[C@H]3[C@@H]3CCc4cc(O)ccc4[C@H]32)cc1 [Example 2, N-butyl-5-[4-(Δ1,3,5(10)-estratrien-3,17β-diol-11β-yl)phenoxy]-pentanesulfonamide] | 21 | 0.016 | marked affinity
